Assay [1] is described as follows: Growth inhibition of human RPMI8226 cells at 10 uM after 48 hrs. In kind it is functional. The conditions noted are these: RPMI-8226, 48 h, read-out: GI.
A further assay deals with HL-60(TB). Description: Growth inhibition of human HL-60(TB) cells at 10 uM after 48 hrs. In kind it is functional. The settings on record: HL-60, 48 h, read-out: GI.
The next assay deals with Bacillus subtilis. Description: Antimicrobial activity against Bacillus subtilis assessed as inhibition zone at 200 ug/disk after 24 hrs by disc-diffusion method. The settings on record: read-out: IZ. The format is functional. Background: In agar diffusion tests the substance spreads into inoculated agar from a disc or well.
The nature of assay [2]: Growth inhibition of human UACC62 cells at 10 uM after 48 hrs. In kind it is functional. The conditions noted are these: UACC-62, 48 h, read-out: GI.
Assay [3] can be described thus: Growth inhibition of human MOLT4 cells at 10 uM after 48 hrs. In kind it is functional. The conditions noted are these: MOLT-4, 48 h, read-out: GI.
Assay [4] is described as follows: (§1) Growth inhibition of human UO31 cells at 10 uM after 48 hrs. In kind it is functional. The conditions noted are these: UO-31, 48 h, read-out: GI.
The next assay addresses T1, Dihydrofolate reductase (Bos taurus, UniProt P00376).
T1 sequence (P00376 whole entry): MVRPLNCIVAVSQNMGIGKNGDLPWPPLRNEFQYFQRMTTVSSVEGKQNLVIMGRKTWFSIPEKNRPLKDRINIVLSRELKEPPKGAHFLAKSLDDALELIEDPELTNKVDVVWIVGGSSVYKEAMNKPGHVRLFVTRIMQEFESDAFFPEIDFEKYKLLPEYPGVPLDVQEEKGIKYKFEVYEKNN
Put plainly: Inhibition of bovine liver DHFR.

In another assay the test system is Escherichia coli. Description: Antimicrobial activity against Escherichia coli assessed as inhibition zone at 200 ug/disk after 24 hrs by disc-diffusion method. The settings on record: read-out: IZ. In kind it is functional.
Assay [5] is described as follows: Growth inhibition of human PC3 cells at 10 uM after 48 hrs. In kind it is functional. The settings on record: PC-3, 48 h, read-out: GI.
The subject of a further assay is Staphylococcus aureus. Put plainly: Antimicrobial activity against Staphylococcus aureus assessed as inhibition zone at 200 ug/disk after 24 hrs by disc-diffusion method. In kind it is functional. The conditions noted are these: read-out: IZ.
The next assay deals with K562. Description: Growth inhibition of human K562 cells at 10 uM after 48 hrs. In kind it is functional. The settings on record: K562, 48 h, read-out: GI.
The test system of another assay is A498. Put plainly: Growth inhibition of human A498 cells at 10 uM after 48 hrs. The format is functional. The conditions noted are these: A498, 48 h, read-out: GI.
In another assay the test system is Pseudomonas aeruginosa. Description: Antimicrobial activity against Pseudomonas aeruginosa assessed as inhibition zone at 200 ug/disk after 24 hrs by disc-diffusion method. The conditions noted are these: read-out: IZ. In kind it is functional.
Assay [6] is described as follows: Growth inhibition of human SF295 cells at 10 uM after 48 hrs. The format is functional. The conditions noted are these: SF-295, 48 h, read-out: GI.
A further assay concerns Candida albicans. Put plainly: Antimicrobial activity against Candida albicans assessed as inhibition zone at 200 ug/disk after 24 hrs by disc-diffusion method. In kind it is functional. The conditions noted are these: read-out: IZ.
A further assay concerns Malme-3M. Put plainly: Growth inhibition of human MALME-3M cells at 10 uM after 48 hrs. The format is functional. The settings on record: read-out: GI.
For a further assay, the system named is NCI-H23. Description: Growth inhibition of human NCI-H23 cells at 10 uM after 48 hrs. The format is functional. The conditions noted are these: NCI-H23, 48 h, read-out: GI.
The next assay has as its system NCI-H522. Put plainly: Growth inhibition of human NCI-H522 cells at 10 uM after 48 hrs. The format is functional.
Assay [7] in a line: Growth inhibition of human HOP92 cells at 10 uM after 48 hrs. In kind it is functional. The settings on record: HOP-92, 48 h, read-out: GI.
The subject of the next assay is NCI-H226. Put plainly: Growth inhibition of human NCI-H226 cells at 10 uM after 48 hrs. In kind it is functional. The settings on record: NCI-H226, 48 h, read-out: GI.
For the next assay, the system named is SR. Description: Growth inhibition of human SR cells at 10 uM after 48 hrs. The format is functional. The settings on record: read-out: GI.
A further assay deals with MCF7. Put plainly: Growth inhibition of human MCF7 cells at 10 uM after 48 hrs. The conditions noted are these: MCF7, 48 h, read-out: GI. In kind it is functional.
The nature of assay [8]: Growth inhibition of human RXF393 cells at 10 uM after 48 hrs. The format is functional. The settings on record: RXF 393, 48 h, read-out: GI.
The test system of a further assay is CAKI-1. Description: Growth inhibition of human CAKI-1 cells at 10 uM after 48 hrs. The format is functional. The conditions noted are these: CAKI-1, 48 h, read-out: GI.
Assay [9] is described as follows: Growth inhibition of human OVCAR4 cells at 10 uM after 48 hrs. In kind it is functional. The conditions noted are these: OVCAR-4, 48 h, read-out: GI.
For a further assay, the system named is T47D. Description: Growth inhibition of human T47D cells at 10 uM after 48 hrs. The format is functional. The settings on record: read-out: GI.
Another assay has as its system CCRF-CEM. Put plainly: Growth inhibition of human CCRF-CEM cells at 10 uM after 48 hrs. The format is functional. The settings on record: read-out: GI.
Another assay concerns UO-31. Described as §1. In kind it is functional.
Assay [10] can be described thus: Growth inhibition of human HCT15 cells at 10 uM after 48 hrs. In kind it is functional. The conditions noted are these: HCT-15, 48 h, read-out: GI.
Assay [11] is described as follows: Growth inhibition of human HCT116 cells at 10 uM after 48 hrs. The conditions noted are these: HCT-116, 48 h, read-out: GI. The format is functional.
The subject of a further assay is KM12. Put plainly: Growth inhibition of human KM12 cells at 10 uM after 48 hrs. In kind it is functional. The settings on record: KM12, 48 h, read-out: GI.
The next assay deals with HT-29. Description: Growth inhibition of human HT-29 cells at 10 uM after 48 hrs. In kind it is functional. The conditions noted are these: HT-29, 48 h, read-out: GI.
In a further assay the test system is A549. Description: Growth inhibition of human A549 cells at 10 uM after 48 hrs. In kind it is functional. The settings on record: A549, 48 h, read-out: GI.
For a further assay, the system named is SK-MEL-5. Description: Growth inhibition of human SK-MEL-5 cells at 10 uM after 48 hrs. In kind it is functional. The settings on record: SK-MEL-5, 48 h, read-out: GI.
Another assay deals with MDA-MB-468. Description: Growth inhibition of human MDA-MB-468 cells at 10 uM after 48 hrs. In kind it is functional. The conditions noted are these: MDA-MB-468, 48 h, read-out: GI.

Activity calls are given as the source filed them. The calls are words filed in the database; no cut-off is given here.

As usually defined, the IC50 is the concentration that gives 50% inhibition. Read a high IC50 as a need for much substance. Take `Nc1nnc(Sc2nc3ccc(Cl)cc3c(=O)n2Cc2ccccc2)s1`: the inhibition of growth at 10 µM came out at 17.3% in [1]; 24.3% in the assay on HL-60(TB); 17.5% in assay [2]; 16.8% in [3]; 27.2% in assay [4]; 12.8% in assay [5]. The inhibition of growth at 10 µM turned out to be 24.8% with K562; 25.9% with A498; 13.5% in assay [6]; 19.2% in the assay on Malme-3M; 10.3% in the assay on NCI-H23. Also, the zone of inhibition at 200 µg/disc is 8 mm in the assay on Bacillus subtilis; 12 mm with Escherichia coli; 8 mm in the assay on Staphylococcus aureus; 8 mm in the assay on Pseudomonas aeruginosa; 8 mm in the assay on Candida albicans. Also, the IC50 against Dihydrofolate reductase turned out to be 8 µM.
As for `COc1ccc(-n2c(Sc3sc(N)nc3C)nc3ccc(Cl)cc3c2=O)cc1`, the inhibition of growth at 10 µM in [1] amounted to 14.6%; in assay [2] it was 12.6%; in assay [4] it was 35.5%; in the assay with NCI-H522 (NCI-H522, 48 h, read-out: GI), 10.5%; in assay [7], 24.9%; in assay [5], 14.7%. The inhibition of growth at 10 µM was determined as 14.3% in the assay on K562; 11.8% in the assay with NCI-H226; 24.3% with A498; 13.5% with SR; 27.6% in [6]; 11.5% with MCF7. Also, the inhibition of growth at 10 µM is 13.4% in assay [8], 13.1% in the assay with CAKI-1 and 13.8% in [9]. Moreover, the zone of inhibition at 200 µg/disc with Bacillus subtilis, in the assay on Escherichia coli, in the assay with Staphylococcus aureus, in the assay on Pseudomonas aeruginosa and in the assay on Candida albicans was 8 mm each time. This compound returned an IC50 against Dihydrofolate reductase of 8 µM.
Turning to `COc1ccc(-n2c(Sc3nnc(N)s3)nc3ccc(Cl)cc3c2=O)cc1`, the inhibition of growth at 10 µM stood at 12% in the assay with T47D; 12% in [3]; 21.1% in assay [4]; 42.1% in assay [7]; 13.4% with NCI-H226; 36.4% in the assay with A498. For the same compound, the inhibition of growth at 10 µM in the assay with SR was 19.1%; in assay [6], 11%; with MCF7, 13.2%. Further, the zone of inhibition at 200 µg/disc in the assay on Bacillus subtilis, in the assay on Escherichia coli, in the assay with Staphylococcus aureus, with Pseudomonas aeruginosa and in the assay on Candida albicans was 8 mm each time. At Dihydrofolate reductase, the IC50 is 0.8 µM.
Take `Nc1nnc(Sc2nc3ccc(Cl)cc3c(=O)n2-c2ccccc2)s1`: the inhibition of growth at 10 µM in [1] turned out to be 19.1%; with HL-60(TB) it was 21.5%; with T47D, 21.4%; in assay [7], 28.6%; in the assay with MCF7 it was 16.4%. Further, the zone of inhibition at 200 µg/disc with Bacillus subtilis, in the assay on Escherichia coli, in the assay on Staphylococcus aureus, in the assay with Pseudomonas aeruginosa and with Candida albicans was 8 mm throughout. It took 6 µM to reach half-maximal inhibition at Dihydrofolate reductase (IC50).
`COc1cc2nc(Sc3nnc(N)s3)n(-c3ccc(Oc4ccccc4)cc3)c(=O)c2cc1OC`: the inhibition of growth at 10 µM was found to be 43.7% in assay [1]; 11.2% in the assay on HL-60(TB); 38.4% in the assay on T47D; 11.2% in the assay on CCRF-CEM; 22.1% in assay [2]; 29.6% in assay [3]. Moreover, the inhibition of growth at 10 µM is 21.4% in assay [10]; 23.2% in assay [5]; 22.5% with K562; 11.5% in [11]; 13.4% in the assay on NCI-H226; 19.3% with A498. Further, the inhibition of growth at 10 µM with SR stood at 57.3%; in the assay with MCF7, 14.8%; in the assay on KM12 it was 20.7%; in [8], 10.7%; in the assay on HT-29, 17.6%; in the assay with A549, 15.2%. For the same compound, the inhibition of growth at 10 µM in [9] came to 34.6%; in the assay with SK-MEL-5, 28.2%; with MDA-MB-468, 22.6%. For the same compound, the zone of inhibition at 200 µg/disc with Bacillus subtilis, in the assay on Escherichia coli, in the assay on Staphylococcus aureus, in the assay with Pseudomonas aeruginosa and in the assay with Candida albicans was 8 mm throughout. Also, the “growth inhibition (GI)” value in the assay on UO-31 and with NCI-H522 was “inactive” throughout. On Dihydrofolate reductase, this compound showed an IC50 of 0.6 µM.
Turning to `COc1cc2nc(Sc3nnc(N)s3)n(Cc3ccccc3)c(=O)c2cc1OC`, the zone of inhibition at 200 µg/disc in the assay with Bacillus subtilis amounted to 14 mm; in the assay with Escherichia coli it was 8 mm; with Staphylococcus aureus, 8 mm; in the assay on Pseudomonas aeruginosa, 8 mm; with Candida albicans, 8 mm. The inhibition of growth at 10 µM in [3] is 18.5%; in assay [4], 21.5%; in [7], 26.7%; in the assay with A498 it was 18.7%; in the assay on SR it was 13.4%; in [6] it was 11.4%. The compound also returned an IC50 against Dihydrofolate reductase of 6 µM.

The values above are taken from ChEMBL document CHEMBL3352542, “Synthesis, biological evaluation and molecular modeling study of 2-(1,3,4-thiadiazolyl-thio and 4-methyl-thiazolyl-thio)-quinazolin-4-ones as a new class of DHFR inhibitors” (Bioorg Med Chem Lett, 2014).
